Like-named read-outs stand apart in the source and are kept apart here.
Legend:
S. aureus RN450 = test: In Vitro Anti-Bacterial Activity Assay (MIC), gram positive; format: cell-based; conditions: Staphylococcus aureus, RN450, 18 h
E. coli mL308 225 = test: In Vitro Anti-Bacterial Activity Assay (MIC), gram negative; format: cell-based; conditions: Escherichia coli, ML308225, 18 h
[1] = MIC class, Table 3 (Continued), read-out: Gram+ activity
[2] = MIC class, Table 3 (Continued), read-out: Gram− activity
[3] = MIC class, Table 3, read-out: Antibiotic Activity Gram +
[4] = MIC class, Table 3, read-out: Antibiotic Activity Gram −
[5] = gram positive bacteria, read-out: Antibiotic Activity Gram + (MIC)
[6] = gram negative bacteria, read-out: Antibiotic Activity Gram − (MIC)
[7] = read-out: Antibiotic Activity Gram +
[8] = read-out: Antibiotic Activity Gram −

Row | SMILES | MIC (S. aureus RN450; [3]) [µg/mL] | MIC (E. coli mL308 225; [4]) [µg/mL] | MIC (S. aureus RN450; [5]) [µg/mL] | MIC (E. coli mL308 225; [6]) [µg/mL] | other results
1 | CN(C)CC#Cc1cc(N(C)C)c2c(c1O)C(=O)C1=C(O)[C@]3(O)C(=O)C(C(N)=O)=C(O)[C@@H](N(C)C)[C@@H]3C[C@@H]1C2 | – | – | – | – | MIC (S. aureus RN450; [1]): > 4 µg/mL; MIC (E. coli mL308 225; [2]): > 4 µg/mL
2 | CN(C)c1cc(CNCC2CCCCC2)c(O)c2c1C[C@H]1C[C@H]3[C@H](N(C)C)C(O)=C(C(N)=O)C(=O)[C@@]3(O)C(O)=C1C2=O [MK] | < 4 | < 4 | – | – | –
3 | CCCCN(c1ccc2c(c1O)C(=O)C1=C(O)[C@]3(O)C(=O)C(C(N)=O)=C(O)[C@@H](N(C)C)[C@@H]3C[C@@H]1C2)C1CCN(C)CC1 [JR] | > 4 | > 4 | – | – | –
4 | CN(C)c1cc(CN2CCCC2)c(O)c2c1C[C@H]1C[C@H]3[C@H](N(C)C)C(O)=C(C(N)=O)C(=O)[C@@]3(O)C(O)=C1C2=O | – | – | < 4 | > 4 | –
5 | CN(C)CCC(=O)c1ccc(O)c2c1C[C@H]1C[C@H]3[C@H](N(C)C)C(O)=C(C(N)=O)C(=O)[C@@]3(O)C(O)=C1C2=O [drawing 3401] | – | – | < 4 | > 4 | –
6 | CN(C)[C@@H]1C(O)=C(C(N)=O)C(=O)[C@@]2(O)C(O)=C3C(=O)c4c(O)ccc(-c5ccc(/C=N/CC#N)cc5)c4C[C@H]3C[C@@H]12 | – | – | < 4 | > 4 | –
7 | CN(C)Cc1ccc(-c2cc(N(C)C)c3c(c2O)C(=O)C2=C(O)[C@]4(O)C(=O)C(C(N)=O)=C(O)[C@@H](N(C)C)[C@@H]4C[C@@H]2C3)o1 [LI] | < 4 | > 4 | – | – | –
8 | CCOC(=O)CNCc1ccc(-c2ccc(O)c3c2C[C@H]2C[C@H]4[C@@H](N(C)C)C(O)=C(C(N)=O)C(=O)[C@@]4(O)C(O)=C2C3=O)cc1 [GK] | < 4 | > 4 | – | – | –
9 | CCCCCc1cc(N(C)C)c2c(c1O)C(=O)C1=C(O)[C@]3(O)C(=O)C(C(N)=O)=C(O)[C@@H](N(C)C)[C@@H]3C[C@@H]1C2 [DX] | < 4 | > 4 | – | – | –
10 | CN(C)[C@@H]1C(O)=C(C(N)=O)C(=O)[C@@]2(O)C(O)=C3C(=O)c4c(O)c(C(C)(C)C)cc(-c5cnc6ccccc6c5)c4C[C@H]3C[C@@H]12 | – | – | > 4 | > 4 | –
11 | CC(C)CNC(=N)Nc1cc(N(C)C)c2c(c1O)C(=O)C1=C(O)[C@]3(O)C(=O)C(C(N)=O)=C(O)[C@@H](N(C)C)[C@@H]3C[C@@H]1C2 [FB] | > 4 | > 4 | – | – | –
12 | CN(C)c1cc(CNc2nc(-c3ccc(F)cc3)co2)c(O)c2c1C[C@H]1C[C@H]3[C@H](N(C)C)C(O)=C(C(N)=O)C(=O)[C@@]3(O)C(O)=C1C2=O | – | – | > 4 | > 4 | –
13 | CCCCC#Cc1cc(N(C)C)c2c(c1O)C(=O)C1=C(O)[C@]3(O)C(=O)C(C(N)=O)=C(O)[C@@H](N(C)C)[C@@H]3C[C@@H]1C2 | – | – | < 4 | < 4 | –
14 | CN(C)c1cc(C(=O)N2CCOCC2)c(O)c2c1C[C@H]1C[C@H]3[C@H](N(C)C)C(O)=C(C(N)=O)C(=O)[C@@]3(O)C(O)=C1C2=O | – | – | > 4 | > 4 | –
15 | CN(C)[C@@H]1C(O)=C(C(N)=O)C(=O)[C@@]2(O)C(O)=C3C(=O)c4c(O)ccc(-c5ccoc5)c4C[C@H]3C[C@@H]12 [drawing 3429] | – | – | < 4 | < 4 | –
16 | CCCCOC(=O)NCc1cc(N(C)C)c2c(c1O)C(=O)C1=C(O)[C@]3(O)C(=O)C(C(N)=O)=C(O)[C@H](N(C)C)[C@@H]3C[C@@H]1C2 [ER] | < 4 | > 4 | – | – | –
17 | CCCC/C(Cl)=C/c1ccc(O)c2c1C[C@H]1C[C@H]3[C@H](N(C)C)C(O)=C(C(N)=O)C(=O)[C@@]3(O)C(O)=C1C2=O | – | – | < 4 | < 4 | –
18 | CN(C)[C@@H]1C(O)=C(C(N)=O)C(=O)[C@@]2(O)C(O)=C3C(=O)c4c(O)c(CS(C)(=O)=O)cc(I)c4C[C@H]3C[C@@H]12 | – | – | < 4 | > 4 | –
19 | CN(C)[C@@H]1C(O)=C(C(N)=O)C(=O)[C@@]2(O)C(O)=C3C(=O)c4c(O)ccc(Cl)c4[C@](C)(O)[C@H]3C[C@@H]12 | – | – | < 4 | > 4 | –
20 | CN(C)[C@@H]1C(O)=C(C(N)=O)C(=O)[C@@]2(O)C(O)=C3C(=O)c4c(O)ccc(-c5cncnc5)c4C[C@H]3C[C@@H]12 [NL] | < 4 | < 4 | – | – | –
21 | COc1ccc(-c2ccc(O)c3c2C[C@H]2C[C@H]4[C@H](N(C)C)C(O)=C(C(N)=O)C(=O)[C@@]4(O)C(O)=C2C3=O)cc1CN [HI] | < 4 | > 4 | – | – | –
22 | CN(C)[C@@H]1C(O)=C(C(N)=O)C(=O)[C@@]2(O)C(O)=C3C(=O)c4c(O)ccc(C=C5CCC5)c4C[C@H]3C[C@@H]12 | – | – | – | – | MIC (S. aureus RN450; [1]): < 4 µg/mL; MIC (E. coli mL308 225; [2]): < 4 µg/mL
23 | CN(C)[C@@H]1C(O)=C(C(N)=O)C(=O)[C@@]2(O)C(O)=C3C(=O)c4c(O)ccc(-c5cc6ccccc6o5)c4C[C@H]3C[C@@H]12 [drawing 3311] | – | – | – | – | MIC (S. aureus RN450; [1]): < 4 µg/mL; MIC (E. coli mL308 225; [2]): < 4 µg/mL

Row | SMILES | MIC (S. aureus RN450; [3]) [µg/mL] | MIC (E. coli mL308 225; [4]) [µg/mL] | MIC (S. aureus RN450; [5]) [µg/mL] | MIC (E. coli mL308 225; [6]) [µg/mL] | other results
24 | CC(=O)c1cccc(-c2ccc(O)c3c2C[C@H]2C[C@H]4[C@H](N(C)C)C(O)=C(C(N)=O)C(=O)[C@@]4(O)C(O)=C2C3=O)c1 [AO] | < 4 | > 4 | – | – | –
25 | CC(=O)CCC(=O)Nc1ccc2c(c1O)C(=O)C1=C(O)[C@]3(O)C(=O)C(C(N)=O)=C(O)[C@@H](N(C)C)[C@@H]3C[C@@H]1C2 | – | – | > 4 | > 4 | –
26 | CN(C)[C@@H]1C(O)=C(C(N)=O)C(=O)[C@@]2(O)C(O)=C3C(=O)c4c(O)ccc(-c5ccc(C#N)cc5)c4C[C@H]3C[C@@H]12 | – | – | – | – | MIC (S. aureus RN450; [1]): < 4 µg/mL; MIC (E. coli mL308 225; [2]): < 4 µg/mL
27 | CN(C)C1C(O)=C(C(N)=O)C(=O)[C@@]2(O)C(O)=C3C(=O)c4c(O)ccc(-c5ccc(NC(=O)Nc6ccc(OC(F)(F)F)cc6)cc5)c4C[C@H]3C[C@@H]12 (stereo partly drawn) [GV] | > 4 | > 4 | – | – | –
28 | CN(C)c1cc(NC(=O)Nc2ccc(F)c([N+](=O)[O-])c2)c(O)c2c1C[C@H]1C[C@H]3[C@H](N(C)C)C(O)=C(C(N)=O)C(=O)[C@@]3(O)C(O)=C1C2=O [DB] | < 4 | > 4 | – | – | –
29 | CN1CCC(NCc2cc(N(C)C)c3c(c2O)C(=O)C2=C(O)[C@]4(O)C(=O)C(C(N)=O)=C(O)[C@@H](N(C)C)[C@@H]4C[C@@H]2C3)CC1 | – | – | > 4 | > 4 | –
30 | CN(C)[C@@H]1C(O)=C(C(N)=O)C(=O)[C@@]2(O)C(O)=C3C(=O)c4c(O)ccc(Cl)c4C=C3C[C@@H]12 | – | – | < 4 | < 4 | –
31 | C[C@H]1c2cccc(O)c2C(=O)C2=C(O)[C@]3(O)C(=O)C(C(N)=O)=C(O)[C@@H](N(C)C)[C@@H]3[C@@H](OC(=O)C34CC5CC(CC(C5)C3)C4)[C@@H]21 [T] | < 4 | > 4 | – | – | –
32 | CN1CCN(c2cc(N(C)C)c3c(c2O)C(=O)C2=C(O)[C@]4(O)C(=O)C(C(N)=O)=C(O)[C@@H](N(C)C)[C@@H]4C[C@@H]2C3)CC1 | – | – | > 4 | > 4 | –
33 | CN(C)c1cc(-c2ccc(OC(F)(F)F)cc2)c(O)c2c1C[C@H]1C[C@H]3[C@H](N(C)C)C(O)=C(C(N)=O)C(=O)[C@@]3(O)C(O)=C1C2=O [EK] | < 4 | > 4 | – | – | –
34 | CN(C)[C@@H]1C(O)=C(C(N)=O)C(=O)[C@@]2(O)C(O)=C3C(=O)c4c(O)ccc(C(=O)CN5CCOCC5)c4C[C@H]3C[C@@H]12 | – | – | < 4 | > 4 | –
35 | CN(C)c1cc(-c2ccc(Cl)cc2)c(O)c2c1C[C@H]1C[C@H]3[C@H](N(C)C)C(O)=C(C(N)=O)C(=O)[C@@]3(O)C(O)=C1C2=O [AF] | < 4 | > 4 | – | – | –
36 | CN(C)[C@@H]1C(O)=C(C(N)=O)C(=O)[C@@]2(O)C(O)=C3C(=O)c4c(O)ccc(-c5ccc(F)cc5F)c4C[C@H]3C[C@@H]12 [AB] | < 4 | > 4 | – | – | –
37 | CONC(=O)c1cccc(-c2ccc(O)c3c2C[C@H]2C[C@H]4[C@H](N(C)C)C(O)=C(C(N)=O)C(=O)[C@@]4(O)C(O)=C2C3=O)c1 | – | – | < 4 | > 4 | –
38 | CN(C)c1cc(CNC(=O)Oc2ccccc2)c(O)c2c1C[C@H]1C[C@H]3[C@H](N(C)C)C(O)=C(C(N)=O)C(=O)[C@@]3(O)C(O)=C1C2=O [EP] | – | – | – | – | MIC (S. aureus RN450; [7]): < 4 µg/mL; MIC (E. coli mL308 225; [8]): > 4 µg/mL
39 | CC(=O)OCC(=O)Nc1ccc(-c2ccc(O)c3c2C[C@H]2C[C@H]4[C@H](N(C)C)C(O)=C(C(N)=O)C(=O)[C@@]4(O)C(O)=C2C3=O)cc1 | – | – | < 4 | > 4 | –
40 | CCOC(=O)c1cccc(-c2ccc(O)c3c2C[C@H]2C[C@H]4[C@H](N(C)C)C(O)=C(C(N)=O)C(=O)[C@@]4(O)C(O)=C2C3=O)c1 | – | – | – | – | MIC (S. aureus RN450; [1]): < 4 µg/mL; MIC (E. coli mL308 225; [2]): < 4 µg/mL
41 | CC(C)S(=O)(=O)NCC#Cc1cc(N(C)C)c2c(c1O)C(=O)C1=C(O)[C@]3(O)C(=O)C(C(N)=O)=C(O)[C@@H](N(C)C)[C@@H]3C[C@@H]1C2 [DI] | > 4 | > 4 | – | – | –
42 | CN(C)[C@@H]1C(O)=C(C(N)=O)C(=O)[C@@]2(O)C(O)=C3C(=O)c4c(O)ccc(-c5cncc(CO)c5)c4C[C@H]3C[C@@H]12 | – | – | < 4 | > 4 | –
43 | CN(C)c1cc(CNC(=O)Oc2ccc(F)cc2)c(O)c2c1C[C@H]1C[C@H]3[C@H](N(C)C)C(O)=C(C(N)=O)C(=O)[C@@]3(O)C(O)=C1C2=O [FJ] | – | – | – | – | MIC (S. aureus RN450; [7]): < 4 µg/mL; MIC (E. coli mL308 225; [8]): > 4 µg/mL
44 | CN(C)[C@@H]1C(O)=C(C(N)=O)C(=O)[C@@]2(O)C(O)=C3C(=O)c4c(O)ccc(CNCc5ccc(F)cc5)c4C[C@H]3C[C@@H]12 | – | – | < 4 | < 4 | –
45 | Cc1ccc(-c2ccc(O)c3c2C[C@H]2C[C@H]4[C@H](N(C)C)C(O)=C(C(N)=O)C(=O)[C@@]4(O)C(O)=C2C3=O)nc1 | – | – | < 4 | < 4 | –

Source: patent US20150141381A1, “TETRACYCLINE COMPOUNDS HAVING TARGET THERAPEUTIC ACTIVITIES” (Paratek Pharmaceuticals, Inc., priority 2001, published 2015)
